Results published in patent US8476271B2 (priority 2008, dated 2013).
Structures can show the parent of a compound that is named as a salt.

Columns and labels:
[1] = system: FCA-induced thermal hyperalgesia; assay: FCA model of inflammatory pain, thermal hyperalgesia (PWL, plantar test); format: in vivo; details: rat
Experimental: (§1) Each experiment used rats weighing between 200-260 g at the start of the experiment. The rats were group-housed and had free access to food and water at all times, except prior to oral administration of a Substituted-Quinoxaline-Type Bridged-Piperidine Compound when food was removed for 16 hours before dosing. A control group acted as a comparison to rats treated with a Substituted-Quinoxaline-Type Bridged-Piperidine Compound. The control group was administered the carrier for the Substituted-Quinoxaline-Type Bridged-Piperidine Compound. The volume of carrier administered to the control group was the same as the volume of carrier and Substituted-Quinoxaline-Type Bridged-Piperidine Compound administered to the test group.
To assess the actions of a Substituted-Quinoxaline-Type Bridged-Piperidine Compound for the treatment or prevention of inflammatory pain, the Freund's complete adjuvant (“FCA”) model of inflammatory pain was used. […] The left hind paw of each animal was administered a 50 μL intraplantar injection of 50% FCA. 24 hour post injection, the animal was assessed for response to noxious mechanical stimuli by determining the PWT, or to noxious thermal stimuli by determining the PWL, as described below. […] Responses to noxious mechanical stimuli were then determined 1, 3, 5 and 24 hours post administration. Percentage reversal of hyperalgesia for each animal was defined as: […]
The plantar test can be used to assess thermal hyperalgesia. For this test, hind paw withdrawal latencies (PWL) to a noxious thermal stimulus were determined using a plantar test apparatus (commercially available from Ugo Basile of Italy) following the technique described by K. Hargreaves et al., “A New and Sensitive Method for Measuring Thermal Nociception in Cutaneous Hyperalgesia,” Pain 32(1):77-88 (1988). The maximum exposure time was set at 32 seconds to avoid tissue damage and any directed paw withdrawal from the heat source was taken as the end point. Three latencies were determined at each time point and averaged. Either only the affected (ipsilateral) paw was tested, or both the ipsilateral and contralateral (non-injured) paw were tested.

[2] = abnormal behavioral side effects (sedation, hyperactivity, hypoactivity); details: rat, in vivo
[3] = system: nerve injury-induced mechanical hyperalgesia; assay: Seltzer partial sciatic nerve ligation model of neuropathic pain, mechanical hyperalgesia (PWT); format: in vivo; details: rat, 3 mg/kg
Experimental: as §1
Partial ligation of the left sciatic nerve was performed under isoflurane/O2 inhalation anesthesia. Following induction of anesthesia, the left thigh of the rat was shaved and the sciatic nerve exposed at high thigh level through a small incision and was carefully cleared of surrounding connective tissues at a site near the trocanther just distal to the point at which the posterior biceps semitendinosus nerve branches off of the common sciatic nerve. A 7-0 silk suture was inserted into the nerve with a ⅜ curved, reversed-cutting mini-needle and tightly ligated so that the dorsal ⅓ to ½ of the nerve thickness was held within the ligature. The wound was closed with a single muscle suture (4-0 nylon (Vicryl)) and vetbond tissue glue. Following surgery, the wound area was dusted with antibiotic powder. Sham-treated rats underwent an identical surgical procedure except that the sciatic nerve was not manipulated. Following surgery, animals were weighed and placed on a warm pad until they recovered from anesthesia. Animals were then returned to their home cages until behavioral testing began. The animals were assessed for response to noxious mechanical stimuli by determining PWT, as described below, prior to surgery (baseline), then immediately prior to and 1, 3, and 5 hours after drug administration for rear paw of the animal. Percentage reversal of neuropathic hyperalgesia was defined as: […]
The paw pressure assay was used to assess mechanical hyperalgesia. For this assay, hind paw withdrawal thresholds (PWT) to a noxious mechanical stimulus were determined using an analgesymeter (Model 7200, commercially available from Ugo Basile of Italy) as described in C. […] The maximum weight that could be applied to the hind paw was set at 250 g and the end point is taken was complete withdrawal of the paw. PWT was determined once for each rat at each time point and either only the affected (ipsilateral) paw was tested, or both the ipsilateral and contralateral (non-injured) paw were tested.

[4] = target: hERG (human ether a-go-go gene) (Homo sapiens (Human), UniProt Q12809); assay: cardiovascular side effects: in vitro hERG assay and APD in guinea pig purkinje fibers
Experimental: These side effects were determined using known methods: an in vitro hERG (human ether a-go-go gene) assay as disclosed in Z. Zhou et al., “Properties of HERG Channels Stably Expressed in HEK 293 Cells Studied at Physiological Temperature,” Biophysical J. 74:230-241 (1998); and APD (action potential duration) in guinea pig purkinje fibers as disclosed in J. A. Hey, “The Guinea Pig Model for Assessing Cardiotoxic Proclivities of Second Generation Antihistamines,” Arzneimittelforschung 46(8):834-837 (1996).

[5] = 5 mg/kg dose, 1 hour after administration
[6] = 5 mg/kg dose, 3 hours after administration
[7] = 5 mg/kg dose, 5 hours after administration

Structure (SMILES)	% reversal of thermal hyperalgesia [1, 5] [%]	% reversal of thermal hyperalgesia [1, 6] [%]	% reversal of thermal hyperalgesia [1, 7] [%]	abnormal behavioral side effects, such as sedation, hyperactivity and/or hypoactivity [2]	% reversal of thermal hyperalgesia ([1]; 3 mg/kg dose, 1 hour after administration) [%]	% reversal of thermal hyperalgesia ([1]; 3 mg/kg dose, 3 hours after administration) [%]	% reversal of thermal hyperalgesia ([1]; 3 mg/kg dose, 5 hours after administration) [%]	ED50 for reversal of thermal hyperalgesia ([1]; 1 hour after administration) [mg/kg]	ED50 for reversal of thermal hyperalgesia ([1]; 3 hours after administration) [mg/kg]	ED50 for reversal of thermal hyperalgesia ([1]; 5 hours after administration) [mg/kg]	% reversal of mechanical hyperalgesia ([3]; 1 hour after administration) [%]	% reversal of mechanical hyperalgesia ([3]; 3 hours after administration) [%]	% reversal of mechanical hyperalgesia ([3]; 5 hours after administration) [%]	% reversal of mechanical hyperalgesia ([3]; 7 hours after administration) [%]	cardiovascular side effects [4]
O=C(O)c1nc2ccccc2n([C@H]2C[C@H]3CC[C@@H](C2)N3[C@H]2C[C@@H]3CCC[C@@H](C3)C2)c1=O [Compound 361, 4-((endo)-8-((exo)-bicyclo[3.3.1]nonan-3-yl)-8-azabicyclo[3.2.1]octan-3-yl)-3-oxo-3,4-dihydroquinoxaline-2-carboxylic acid]	36	90	70	reduced abnormal behavioral side effects	–	–	–	–	–	–	–	–	–	–	–
O=C(O)c1nc2ccccc2n([C@H]2C[C@H]3CCC[C@@H](C2)N3C2CC3CCCC(C3)C2)c1=O (stereo partly drawn) [Compound 362, 4-((endo)-9-((exo)-bicyclo[3.3.1]nonan-3-yl)-9-azabicyclo[3.3.1]nonan-3-yl)-3-oxo-3,4-dihydroquinoxaline-2-carboxylic acid]	–	–	–	reduced abnormal behavioral side effects	86	51	27	0.8	1.5	3.0	60	60	50	40	reduced cardiovascular side effects
O=C(O)c1nc2ccccc2n([C@H]2C[C@H]3CC[C@@H](C2)N3C2CCCCCCCCCC2)c1=O [Compound 358, 4-((endo)-8-cycloundecyl-8-azabicyclo[3.2.1]octan-3-yl)-3-oxo-3,4-dihydroquinoxaline-2-carboxylic acid]	34	46	79	reduced abnormal behavioral side effects	–	–	–	–	–	–	–	–	–	–	–
C[C@@H]1C[C@@H]2C[C@H](C1)C[C@@H](N1[C@@H]3CCC[C@H]1C[C@@H](n1c(=O)c(C(=O)O)nc4ccccc41)C3)C2 [Compound 405, (exo, endo, endo)-4-(9-(7-methylbicyclo[3.3.1]nonan-3-yl)-9-azabicyclo[3.3.1]nonan-3-yl)-3-oxo-3,4-dihydroquinoxaline-2-carboxylic acid potassium salt]	–	–	–	–	–	–	–	–	–	–	70	70	70	–	–
